Data set [1] deals with Protein arginine N-methyltransferase 5 (Homo sapiens, UniProt O14744). Briefly: Inhibition of PRMT5 (unknown origin) by radiometric-based scintillation proximity assay. A general note: In a scintillation proximity assay essentially only radioactivity close to the scintillant gives light.
In data set [2] the target is Epidermal growth factor receptor (Homo sapiens, UniProt P00533). Briefly: Inhibition of wild type GST-tagged EGFR catalytic domain (unknown origin) expressed in insect cells using poly(Glu-Tyr) as substrate incubated for 6 mins by ELISA. On the set-up: species or system Insect cell.
Data set [3] is described as follows: Metabolic stability in human liver microsomes assessed as compound remaining at […] measured after 30 mins in presence of NADPH by LC-MS/MS analysis. Conditions: read-out: Stability. It counts as ADME, Microsome. On the technique in general: Liver microsomes are vesicles of endoplasmic reticulum, rich in cytochrome P450 enzymes.
A short description of data set [4]: Metabolic stability in rat liver microsomes assessed as compound remaining at […] measured after 30 mins in presence of NADPH by LC-MS/MS analysis. It counts as ADME, Microsome. Conditions: read-out: Stability.
A further data set concerns A549. Briefly: Antiproliferative activity against human A549 cells assessed as inhibition of cell growth by CCK-8 assay. For orientation: Tetrazolium assays rely on reduction of a dye to a coloured formazan, in cell work by metabolically active cells.
For data set [5], the system named is MCF7. Briefly: Antiproliferative activity against human MCF7 cells assessed as inhibition of cell growth by CCK-8 assay.
In the next data set the test system is HeLa. As to the kind of experiment: Antiproliferative activity against human HeLa cells assessed as inhibition of cell growth by CCK-8 assay.
The test system of the next data set is MDA-MB-231. Briefly: Antiproliferative activity against human MDA-MB-231 cells assessed as inhibition of cell growth by CCK-8 assay.
For another data set, the system named is HepG2. As to the kind of experiment: Antiproliferative activity against human HepG2 cells assessed as inhibition of cell growth by CCK-8 assay.
Data set [6] concerns MCF7. As to the kind of experiment: Induction of cell cycle arrest in human MCF7 cells assessed as accumulation of cells at G1 phase at 25 nM incubated for 48 hrs by PI/RNase staining based flow cytometry analysis (reference value: 48.01%). It counts as functional.
Data set [7] deals with MCF7. As to the kind of experiment: Induction of cell cycle arrest in human MCF7 cells assessed as accumulation of cells at S phase at 25 nM incubated for 48 hrs by PI/RNase staining based flow cytometry analysis (reference value: 44.87%). It counts as functional.
Data set [8] relates to MCF7. As to the kind of experiment: Induction of cell cycle arrest in human MCF7 cells assessed as accumulation of cells at G2 phase at 25 nM incubated for 48 hrs by PI/Rnase staining based flow cytometry analysis (reference value: […]%). It counts as functional.
In data set [9] the test system is MCF7. Briefly: Induction of cell cycle arrest in human MCF7 cells assessed as accumulation of cells at G1 phase at 50 nM incubated for 48 hrs by PI/RNase staining based flow cytometry analysis (reference value: 48.01%). It counts as functional.
Data set [10] deals with MCF7. As to the kind of experiment: Induction of cell cycle arrest in human MCF7 cells assessed as accumulation of cells at S phase at 50 nM incubated for 48 hrs by PI/RNase staining based flow cytometry analysis (reference value: 44.87%). It counts as functional.
Data set [11] deals with MCF7. Briefly: Induction of cell cycle arrest in human MCF7 cells assessed as accumulation of cells at G2 phase at 50 nM incubated for 48 hrs by PI/Rnase staining based flow cytometry analysis (reference value: […]%). It counts as functional.
Data set [12] deals with MCF7. As to the kind of experiment: Induction of apoptosis in human MCF7 cells assessed as live cells at 25 nM measured after 48 hrs by Annexin V-FITC staining based flow cytometry analysis (reference value: 99.26%). It counts as functional.
Data set [13] has as its system MCF7. As to the kind of experiment: Induction of apoptosis in human MCF7 cells assessed as early apoptotic cells at 25 nM measured after 48 hrs by Annexin V-FITC staining based flow cytometry analysis (reference value: 0.58%). It counts as functional.
Data set [14] has as its system MCF7. Briefly: Induction of apoptosis in human MCF7 cells assessed as late apoptotic cells at 25 nM measured after 48 hrs by Annexin V-FITC staining based flow cytometry analysis (reference value: 0.14%). It counts as functional.
Data set [15] concerns MCF7. As to the kind of experiment: Induction of apoptosis in human MCF7 cells assessed as dead cells at 25 nM measured after 48 hrs by Annexin V-FITC staining based flow cytometry analysis (reference value: 0.02%). It counts as functional.
Data set [16] concerns MCF7. Briefly: Induction of apoptosis in human MCF7 cells assessed as live cells at 50 nM measured after 48 hrs by Annexin V-FITC staining based flow cytometry analysis (reference value: 99.26%). It counts as functional.
Data set [17] has as its system MCF7. As to the kind of experiment: Induction of apoptosis in human MCF7 cells assessed as early apoptotic cells at 50 nM measured after 48 hrs by Annexin V-FITC staining based flow cytometry analysis (reference value: 0.58%). It counts as functional.
Data set [18] has as its system MCF7. Briefly: Induction of apoptosis in human MCF7 cells assessed as late apoptotic cells at 50 nM measured after 48 hrs by Annexin V-FITC staining based flow cytometry analysis (reference value: 0.14%). It counts as functional.
The subject of data set [19] is MCF7. As to the kind of experiment: Induction of apoptosis in human MCF7 cells assessed as dead cells at 50 nM measured after 48 hrs by Annexin V-FITC staining based flow cytometry analysis (reference value: 0.02%). It counts as functional.
Data set [20] concerns the target Protein arginine N-methyltransferase 1 (Homo sapiens, UniProt Q99873). Briefly: Inhibition of PRMT1 (unknown origin) using [3H]SAM as substrate preincubated for 15 mins followed by substrate addition and measured after 60 mins by microbeta scintillation counting analysis.
Data set [21] deals with T1, Histone-arginine methyltransferase CARM1 (Homo sapiens, UniProt Q86X55).
T1 sequence (Q86X55 whole entry): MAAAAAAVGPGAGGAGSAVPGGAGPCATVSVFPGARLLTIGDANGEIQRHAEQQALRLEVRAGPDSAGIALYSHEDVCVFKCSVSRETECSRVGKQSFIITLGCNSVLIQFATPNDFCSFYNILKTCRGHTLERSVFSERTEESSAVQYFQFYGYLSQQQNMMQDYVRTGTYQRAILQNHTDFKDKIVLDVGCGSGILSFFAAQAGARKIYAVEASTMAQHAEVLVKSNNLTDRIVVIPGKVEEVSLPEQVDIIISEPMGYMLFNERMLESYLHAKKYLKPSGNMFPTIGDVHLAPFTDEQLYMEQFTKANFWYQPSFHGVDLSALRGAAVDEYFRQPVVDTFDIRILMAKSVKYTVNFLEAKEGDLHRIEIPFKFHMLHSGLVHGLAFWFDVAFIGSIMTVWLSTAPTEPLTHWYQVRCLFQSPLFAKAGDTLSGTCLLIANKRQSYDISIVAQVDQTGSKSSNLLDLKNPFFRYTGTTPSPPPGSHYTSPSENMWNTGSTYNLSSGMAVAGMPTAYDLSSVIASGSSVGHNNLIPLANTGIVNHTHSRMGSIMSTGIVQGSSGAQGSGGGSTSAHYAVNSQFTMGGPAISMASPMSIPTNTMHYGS
As to the kind of experiment: Inhibition of PRMT4 (unknown origin) preincubated for 15 mins followed by substrate addition and measured after 60 mins by AlphaLISA assay.

The structures appear in SMILES notation. Where only a bound is given, the exact number is not on record here.

Protein arginine N-methyltransferase 5, sequence (O14744 whole entry, the tested form may be a part): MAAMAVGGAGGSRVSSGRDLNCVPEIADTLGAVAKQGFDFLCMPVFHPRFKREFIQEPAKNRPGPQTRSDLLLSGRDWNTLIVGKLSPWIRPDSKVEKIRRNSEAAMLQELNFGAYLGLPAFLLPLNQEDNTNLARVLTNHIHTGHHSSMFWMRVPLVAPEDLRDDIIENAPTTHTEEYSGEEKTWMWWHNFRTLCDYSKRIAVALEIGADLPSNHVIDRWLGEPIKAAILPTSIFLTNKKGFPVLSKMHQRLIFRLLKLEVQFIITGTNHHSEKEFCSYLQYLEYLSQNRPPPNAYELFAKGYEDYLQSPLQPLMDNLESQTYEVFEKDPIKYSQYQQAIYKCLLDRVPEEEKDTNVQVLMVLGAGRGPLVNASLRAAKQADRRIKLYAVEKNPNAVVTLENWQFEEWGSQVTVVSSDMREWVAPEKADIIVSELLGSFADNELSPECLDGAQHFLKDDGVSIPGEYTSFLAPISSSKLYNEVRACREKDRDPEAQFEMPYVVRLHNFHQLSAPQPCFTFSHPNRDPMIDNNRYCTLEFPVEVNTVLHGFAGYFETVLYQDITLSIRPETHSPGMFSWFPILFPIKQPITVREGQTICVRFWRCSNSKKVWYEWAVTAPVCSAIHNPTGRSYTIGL
Epidermal growth factor receptor, sequence (P00533 whole entry, the tested form may be a part): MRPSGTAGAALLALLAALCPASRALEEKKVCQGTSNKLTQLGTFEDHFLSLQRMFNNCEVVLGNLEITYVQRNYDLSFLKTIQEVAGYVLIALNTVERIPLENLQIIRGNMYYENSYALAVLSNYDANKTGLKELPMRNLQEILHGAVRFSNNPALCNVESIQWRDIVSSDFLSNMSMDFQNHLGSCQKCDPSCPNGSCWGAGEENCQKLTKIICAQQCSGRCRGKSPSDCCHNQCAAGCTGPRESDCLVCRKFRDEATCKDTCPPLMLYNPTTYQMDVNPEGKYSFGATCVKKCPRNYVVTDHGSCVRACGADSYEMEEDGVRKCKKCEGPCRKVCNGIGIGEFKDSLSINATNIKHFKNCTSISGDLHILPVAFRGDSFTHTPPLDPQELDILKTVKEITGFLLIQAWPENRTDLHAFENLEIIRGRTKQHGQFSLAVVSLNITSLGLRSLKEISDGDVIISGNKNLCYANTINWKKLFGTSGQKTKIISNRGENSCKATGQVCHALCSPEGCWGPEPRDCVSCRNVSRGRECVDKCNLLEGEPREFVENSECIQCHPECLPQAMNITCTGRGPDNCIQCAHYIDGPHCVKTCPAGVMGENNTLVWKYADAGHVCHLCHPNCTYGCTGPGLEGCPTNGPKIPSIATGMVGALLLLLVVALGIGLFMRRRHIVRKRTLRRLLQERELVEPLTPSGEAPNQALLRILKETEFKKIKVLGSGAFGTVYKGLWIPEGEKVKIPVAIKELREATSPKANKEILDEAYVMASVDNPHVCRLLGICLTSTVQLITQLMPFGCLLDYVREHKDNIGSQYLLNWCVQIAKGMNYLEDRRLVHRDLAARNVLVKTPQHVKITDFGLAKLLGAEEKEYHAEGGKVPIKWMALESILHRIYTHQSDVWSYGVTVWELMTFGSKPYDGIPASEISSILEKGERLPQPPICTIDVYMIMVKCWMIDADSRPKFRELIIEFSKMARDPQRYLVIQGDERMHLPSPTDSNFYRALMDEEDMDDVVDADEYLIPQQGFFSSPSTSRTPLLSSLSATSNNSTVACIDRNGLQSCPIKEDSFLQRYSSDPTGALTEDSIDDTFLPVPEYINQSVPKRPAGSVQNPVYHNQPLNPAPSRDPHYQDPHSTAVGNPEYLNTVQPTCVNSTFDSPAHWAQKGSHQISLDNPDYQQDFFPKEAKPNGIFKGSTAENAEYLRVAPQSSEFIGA
Protein arginine N-methyltransferase 1, sequence (Q99873 whole entry): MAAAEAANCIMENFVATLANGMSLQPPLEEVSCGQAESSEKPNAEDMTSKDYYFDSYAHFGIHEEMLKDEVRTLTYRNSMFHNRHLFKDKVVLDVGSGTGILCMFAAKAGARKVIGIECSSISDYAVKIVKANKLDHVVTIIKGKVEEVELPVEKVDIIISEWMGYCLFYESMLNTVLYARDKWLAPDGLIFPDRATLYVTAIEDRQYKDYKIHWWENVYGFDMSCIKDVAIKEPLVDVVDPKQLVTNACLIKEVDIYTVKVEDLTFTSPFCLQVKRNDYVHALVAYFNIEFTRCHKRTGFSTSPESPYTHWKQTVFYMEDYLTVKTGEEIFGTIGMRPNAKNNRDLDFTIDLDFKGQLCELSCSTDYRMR

On to `COc1cc(C2NCCc3c2[nH]c2ccccc32)ccc1OC(=O)c1ccccc1` (stereo unspecified), for which the IC50 in [1] turned out to be 48.7 µM; in data set [2] it was 42.7 µM. Further, the remaining at 0.5 h came to 20.6% in [3] and 15.1% in data set [4].
Regarding `COc1cc(C2NCCc3c2[nH]c2ccccc32)ccc1OCc1ccc(C(C)(C)C)cc1` (stereo unspecified), the IC50 in data set [1] was found to be 42.8 µM; in [2] it was 25.4 µM; in the data set on A549 it was 12.4 µM; in the data set on MCF7 [5] it was 3.82 µM; in the data set with HeLa, 4.43 µM; with MDA-MB-231, 20.5 µM. The IC50 with HepG2 came out at 26.4 µM. Also, the remaining at 0.5 h in data set [3] was 50.6%; in data set [4] it was 45.4%.
As for `COc1cc(C2NCCc3c2[nH]c2ccccc32)ccc1OCc1ccc(C#N)cc1F` (stereo unspecified), the IC50 worked out at 70.4 µM in data set [1]; 80.6 µM in data set [2]; 12.8 µM in the data set with A549; 13.1 µM in the data set on MCF7 [5]; 13.3 µM with HeLa; 6.2 µM in the data set on MDA-MB-231. In the data set on HepG2, the IC50 was greater than 50 µM. In addition, the remaining at 0.5 h in [3] was determined as 40.6%; in data set [4], 35.9%.
Take `O=C(NC[C@H](O)CN1CCc2ccccc2C1)c1cc(NC2COC2)ncn1`: the Activity with MCF7 [6] came to 56.22%; in the data set with MCF7 [7], 43.56%; in the data set with MCF7 [8], 0.13%; in the data set on MCF7 [9] it was 66.11%; in the data set with MCF7 [10], 22.78%; in the data set on MCF7 [11], 9.98%. Moreover, the Activity with MCF7 [12] is recorded as 96.29%; with MCF7 [13], 1.41%; in the data set on MCF7 [14] it was 0.83%; in the data set with MCF7 [15] it was 1.47%; in the data set on MCF7 [16], 88.73%; in the data set with MCF7 [17] it was 3.79%. In addition, the Activity in the data set with MCF7 [18] was 4.31%; in the data set with MCF7 [19] it was 3.17%.
Take `COc1cc(C2NCCc3c2[nH]c2ccccc32)ccc1OCc1ccc(OC(F)(F)F)c(Cl)c1` (stereo unspecified): the IC50 in data set [1] is 46.9 µM; in [2], 62.4 µM; in the data set on A549, 13.1 µM; in the data set on MCF7 [5], 6.59 µM; in the data set on HeLa, 6.92 µM; with MDA-MB-231, 13.3 µM. Also, the IC50 with HepG2 came out at 40.4 µM. For the same molecule, the values for the remaining at 0.5 h in data set [3] and in data set [4] were 70% and 76.6%, respectively.
For the molecule `COc1cc(C2NCCc3c2[nH]c2ccccc32)ccc1OCc1ccc(F)cc1Br` (stereo unspecified), the half-inhibitory concentration (IC50) in data set [1] amounted to 36.8 µM; in data set [2] it was 74.4 µM; in the data set with A549 it was 13.3 µM; with MCF7 [5], 7.46 µM; in the data set on HeLa, 7.15 µM; in the data set with MDA-MB-231, 12.9 µM. Besides, the IC50 in the data set on HepG2 is greater than 50 µM. Moreover, the remaining at 0.5 h in data set [3] was found to be 61.1%; in data set [4], 66.5%.
`COC(=O)c1ccc(COc2ccc(C3NCCc4c3[nH]c3ccccc43)cc2OC)cc1` (stereo unspecified): the IC50 in data set [1] is 21.3 µM; in [2], 52 µM; in [20] it was greater than 100 µM; in data set [21], greater than 100 µM; in the data set on A549 it was 18.7 µM; with MCF7 [5], 13.7 µM. In addition, the half-maximal inhibitory concentration (IC50) in the data set with HeLa was 13.4 µM; with MDA-MB-231 it was greater than 50 µM; in the data set on HepG2 it was greater than 50 µM. Further, the remaining at 0.5 h is 10.3% in data set [3] and 5.2% in data set [4].
Consider `O=C(Oc1ccc(C2NCCc3c2[nH]c2ccccc32)cc1)c1ccccc1` (stereo unspecified), for which the figures for the IC50 in data set [1] and in data set [2] were 59.7 µM and 51.5 µM, respectively. Also, the remaining at 0.5 h came to 16.4% in [3] and 12.3% in data set [4].
For the molecule `COc1cc(C2NCCc3c2[nH]c2ccccc32)ccc1OCc1ccc(F)c(C(F)(F)F)c1` (stereo unspecified), the IC50 in data set [1] and in data set [2] was greater than 100 µM in each case.
Consider `CN1CCc2c([nH]c3ccccc23)C1c1ccc(NC(=O)c2cccc([N+](=O)[O-])c2)cc1` (stereo unspecified), for which the IC50 in data set [1] and in [2] was greater than 100 µM throughout.
`COc1cc(C2NCCc3c2[nH]c2ccccc32)ccc1OCc1ccc(F)c(Br)c1` (stereo unspecified): the 50% inhibitory concentration (IC50) in data set [1] is 41.3 µM; in data set [2] it was 51.4 µM; in the data set on A549, 7.08 µM; with MCF7 [5], 7 µM; with HeLa it was 6.86 µM; in the data set on MDA-MB-231 it was greater than 50 µM. The IC50 with HepG2 came out at 36 µM. In addition, the remaining at 0.5 h amounted to 65.4% in data set [3] and 57.8% in data set [4].
Regarding `CN1CCc2c([nH]c3ccccc23)C1c1ccc(NC(=O)c2cccc(Cl)c2)cc1` (stereo unspecified), the IC50 in [1] and in data set [2] was greater than 100 µM each time.
`O=C(Nc1ccc(C2NCCc3c2[nH]c2ccccc32)cc1)c1cccc(F)c1` (stereo unspecified): the half-maximal inhibitory concentration (IC50) in data set [1] amounted to 71.8 µM; in [2] it was 95.2 µM.

The IC50 is the concentration at which inhibition is half-maximal.

The values are drawn from ChEMBL document CHEMBL5506008, “Synthesis and biological evaluation of 1-phenyl-tetrahydro-β-carboline-based first dual PRMT5/EGFR inhibitors as potential anticancer agents” (Eur J Med Chem, 2024).
